Laboratory results taken from ChEMBL document CHEMBL1201862, “PubChem BioAssay data set” (2004).
Activity calls are given as the source filed them.

How the values were obtained:
[1] = molecular target: Heat shock protein HSP 90-alpha (Homo sapiens, UniProt P07900); assay type: functional, organism-based
Vero [2] = assay: cells; assay type: functional; details: Chlorocebus sabaeus
[3] = non-specific 3'UTR reporter inhibition in Clone20-Shn3RL – cell-based, Renilla luciferase, cherry-picked, counter-screen for Shn3 inhibitor project, dose response (AID 624133); assay type: functional
[4] = molecular target: T1, DNA repair protein RAD52 homolog (Homo sapiens, UniProt P43351); assay type: functional, biochemical
T1 sequence (P43351 whole entry): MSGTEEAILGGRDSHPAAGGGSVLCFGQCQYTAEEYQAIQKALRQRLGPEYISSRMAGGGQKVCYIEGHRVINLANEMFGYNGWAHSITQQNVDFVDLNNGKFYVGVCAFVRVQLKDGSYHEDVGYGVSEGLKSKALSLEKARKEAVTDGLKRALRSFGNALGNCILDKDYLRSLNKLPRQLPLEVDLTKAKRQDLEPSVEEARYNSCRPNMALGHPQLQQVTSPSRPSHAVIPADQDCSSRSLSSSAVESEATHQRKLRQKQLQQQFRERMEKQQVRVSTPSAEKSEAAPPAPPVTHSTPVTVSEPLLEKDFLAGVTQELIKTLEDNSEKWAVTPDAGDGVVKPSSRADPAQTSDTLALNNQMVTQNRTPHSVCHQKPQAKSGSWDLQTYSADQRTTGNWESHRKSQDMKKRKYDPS

Caspase-6 = molecular target: T2, Caspase-6 (Homo sapiens, UniProt P55212); assay: inhibition of CASP6 peptide cleavage – biochemical, VEID-R110 fluorescence, cherry-pick, dose response (AID 720632)
T2 sequence (P55212 whole entry): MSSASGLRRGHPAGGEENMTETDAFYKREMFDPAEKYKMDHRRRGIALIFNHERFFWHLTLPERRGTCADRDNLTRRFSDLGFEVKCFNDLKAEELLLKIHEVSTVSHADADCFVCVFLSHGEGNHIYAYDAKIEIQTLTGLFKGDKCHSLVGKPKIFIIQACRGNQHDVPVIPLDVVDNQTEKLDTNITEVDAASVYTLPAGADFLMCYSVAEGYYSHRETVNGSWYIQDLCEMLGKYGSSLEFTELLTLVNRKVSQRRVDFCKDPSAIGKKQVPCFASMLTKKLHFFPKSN

[5] = molecular target: T3, Microphthalmia-associated transcription factor (Homo sapiens, UniProt O75030); assay: reducers of TRPM1 reporter luminescence, concentration series – cell-based, SK-MEL-5, cherry-picked, set 3, MITF inhibitor project, dose response (AID 493073); assay type: functional;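 note: SK-MEL-5 melanoma cells with luciferase driven by the MITF target TRPM1 promoter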
T3 sequence (O75030 whole entry): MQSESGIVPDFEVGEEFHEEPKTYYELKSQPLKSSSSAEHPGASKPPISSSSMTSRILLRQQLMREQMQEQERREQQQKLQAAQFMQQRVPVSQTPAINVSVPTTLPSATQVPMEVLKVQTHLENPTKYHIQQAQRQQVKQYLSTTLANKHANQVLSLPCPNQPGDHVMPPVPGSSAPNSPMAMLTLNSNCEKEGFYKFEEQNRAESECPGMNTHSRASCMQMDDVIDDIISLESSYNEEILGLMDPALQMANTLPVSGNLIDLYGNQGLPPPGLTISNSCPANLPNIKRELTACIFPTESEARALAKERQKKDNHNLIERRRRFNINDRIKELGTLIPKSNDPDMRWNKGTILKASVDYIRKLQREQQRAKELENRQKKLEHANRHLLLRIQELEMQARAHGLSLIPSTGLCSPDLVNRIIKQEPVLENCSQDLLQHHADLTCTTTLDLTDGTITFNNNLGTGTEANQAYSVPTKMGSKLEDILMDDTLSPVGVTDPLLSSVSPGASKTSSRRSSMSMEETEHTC

Vero [6] = assay: viability of Vero cells under compound – cytotoxicity control for flavivirus capping enzyme inhibitors (AID 588742); assay type: functional; details: Chlorocebus sabaeus

Question: What does the source list for CCCCCCCCCCOC(=O)Cn1c(COc2ccc(OC)cc2)[n+](C)c2ccccc21?
Answer: AC50 [1]: 38.2 µM (active); CC50 (Vero [2]): > 25 µM (active); AC50 [3]: 3.44 µM (active)

Question: With COc1cc2c(cc1OC)-c1c(OC)c(OC)cc3c1[C@H](C2)N(C)CC3 as the compound, how does the AC50 [4] read?
Answer: 2.86 µM (active)

Question: And the AC50 (Caspase-6)?
Answer: 0.926 µM (active)

Question: For COC1=C(c2ccccc2)C(=O)c2ccccc2C1=O, which AC50 [5] is on record?
Answer: 9.05 µM (active)

Question: What about the CC50 (Vero [6]) of the same compound?
Answer: 17.8 µM (active)
